Each block holds one compound with its values, some of them ahead of it.
What was measured:
[1] = tested on: cancer stem cells (CD44) in HuH-7 cells; test: Inhibitory effect on cancer stem cells (FCM analysis of CD44), Example 2.4; type: cell-based, human; conditions: comparison with IC-2
Description: CD44, a cancer stem cell marker, was used as an indicator to examine an inhibitory effect of each compound on cancer stem cells. The concentrations of the respective compounds were as described in FIG. 32. Each control sample used was 0.1% DMSO, a solvent for each compound. In the figures, the “‡” indicates a significant difference of p<0.01.
First, 70 to 90% confluent HuH-7 cells were harvested and seeded at 1.5×10^6 cells per 10-cm cell culture dish. After 24 h, each compound was added to the cells and the mixture was cultured at 37° C. At 48 h after the compound treatment, the cells were harvested from each culture dish. The cells were centrifuged at 1000 rpm and at 4° C. for 3 min to remove a supernatant and were then washed twice with 1 mL of 0.5% FBS/2 mM EDTA/PBS. Next, the cells were suspended in 500 μL of 5% BSA/0.5% FBS/2 mM EDTA/PBS for blocking at 4° C. for 15 min. Then, 5 μL of a mouse anti-human CD44 monoclonal antibody (156-3C11, Cell Signaling Technology Inc., Danvers, Mass.) was added to 500 μL of the cell suspension. The mixture was resuspended and subjected to a primary antibody reaction in a dark room at 4° C. for 30 min. After that, the cells were washed 3 times with 1 mL of 0.5% FBS/2 mM EDTA/PBS. Subsequently, 100 μL of Alexa Fluor 488-labeled IgG (H+L) (ab150113, Abcam Ltd., Cambridge, UK), which had been diluted 200-fold with 5% BSA/0.5% FBS/2 mM EDTA/PBS, was added and the cells were suspended. Then, a secondary antibody reaction was carried out in a dark room at 4° C. for 30 min. After that, the cells were washed 3 times with 1 mL of 0.5% FBS/2 mM EDTA/PBS. Thereafter, the cells were suspended in 500 μL of 0.5% FBS/2 mM EDTA/PBS and were made to pass through a 40 μm-mesh column (Becton, Dickinson and Company, Franklin Lakes, N.J.). A Beckman Coulter-Moflo XDP (Beckman Coulter Inc., Fullerton, Calif.) was used for analysis. Following the analysis, further analysis was conducted by adding 2 μL of 0.25 mg/mL Propidium Iodide (PI). The same experiment was repeated four times.

mesenchymal stem cell = test: Hepatocyte differentiation-inducing effect, summary statements on Example 4 (readout not specified); type: cell-based, human; conditions: low concentration
Description: Albumin, a hepatocyte marker, was used as an indicator, and RNA was collected from cells treated with each compound. Next, a hepatocyte differentiation-inducing effect was examined by real-time RT-PCR. The concentrations of the respective compounds were as described in FIG. 35. Each control sample used was 0.1% DMSO, a solvent for each compound.
By using urea synthesis, a hepatocyte function, as an indicator, a hepatocyte differentiation-inducing effect of each compound was investigated.
The cells treated with each compound were subjected to immunofluorescence analysis of albumin, a hepatocyte marker, to investigate a hepatocyte differentiation-inducing effect. The concentrations of the respective compounds were as described in FIG. 37. Each control sample used was 0.1% DMSO, a solvent for each compound.
By using glycogen synthesis, a hepatocyte function, as an indicator, a hepatocyte differentiation-inducing effect of each compound was investigated.

Wnt/β-catenin signal = conditions: as described in Patent Literature 1; cited from earlier work
CD44high DLD-1 cells = test: CD44high cells in DLD-1 cells (FCM analysis); type: cell-based, human; conditions: 48 h, 50 μM IC-2, 0.5 or 5 μM 5-FU, compared with control
Description: In addition, DLD-1 cells were seeded at 1×10^6 cells/10-cm cell culture dish. After 24 h, the cells were treated with 0.5 or 5 μM of 5-FU or 50 μM of IC-2. At additional 48 h, the cells were harvested. As a primary antibody, used was a mouse anti-human CD44 antibody (Abcam Ltd., Cambridge, UK). Then, Alexa Fluor 488-labeled goat anti-mouse IgG (H+L) (Life Technologies Corp., Carlsbad, Calif.) was used. After that, a MoFlo XDP (Beckman Coulter Inc., Fullerton, Calif.) was used for analysis.

[2] = tested on: HSC2 cells (squamous cell carcinoma cells); test: Growth of squamous cell carcinoma cells (Cell Counting Kit-8); type: cell-based; conditions: HSC2 cells, 0, 24, 72, 96 h
Description: HSC2 cells (squamous cell carcinoma cells) were seeded at 2.5×10^3 cells/well of a 96-well plate (TPP Techno Plastic Products AG, Trasadingen, Switzerland). Next, 0, 24, 72, and 96 h after that, 100 μL of 10% Cell Counting Kit-8 (DOJINDO LABORATORIES, Kumamoto) was added. The mixture was incubated at 37° C. and its absorbance (at a measurement wavelength of 450 nm/control wavelength of 600 nm) was measured by using a Sunrise Rainbow RC (Tecan Group Ltd., Mannedorf, Switzerland).

HuH-7 cells = test: Growth inhibitory effect on cancer cells (WST assay), Example 6.3; type: cell-based, human
Description: HuH-7 cells, a human liver cancer cell line, were cultured on 10-cm cell culture dishes (TPP Techno Plastic Products AG, Trasadingen, Switzerland) by using DMEM under conditions at 5% CO2, 37° C., and 100% humidity. When the cells were 70 to 90% confluent, 200 μL of 0.25% Trypsin/1 mM EDTA solution, which had been prepared by diluting the stock solution 10-fold with PBS (−), was added to detach the cells. Then, the cells were centrifuged at 1000 rpm for 3 min at room temperature. The cells recovered were subcultured at a 1:4 split ratio.
First, 70 to 90% confluent HuH-7 cells were harvested and seeded (n=3) at 1×10^4 cells/well of a 96-well plate (TPP). After 24 h, IC-2 was added to the cells and the mixture was cultured at 37° C. Each control sample (0 μM) used was 1% DMSO, a solvent for each compound. The concentrations of IC-2 used were 0, 1, 5, 10, 25, and 50 μM
Next, day 4 after the IC-2 treatment, 100 μL of DMEM-diluted 10% Cell Counting Kit-8 (DOJINDO LABORATORIES, Kumamoto) was added. The mixture was incubated at 37° C. for 60 min and its absorbance (at a measurement wavelength of 450 nm/control wavelength of 600 nm) was measured by using a Sunrise Rainbow RC (Tecan Group Ltd., Mannedorf, Switzerland). Absorbance for the cells alone was calculated by subtracting, from the reading obtained, absorbance for 10% Cell Counting Kit-8 alone. […]

- hepatocyte-inducing effect at low concentration (mesenchymal stem cell): exerted a hepatocyte-inducing effect
Structure (SMILES): COc1ccc(COc2ccc(CNC(=O)N3CCC(=O)N4C(Cc5ccccc5)C(=O)N(Cc5cccc6ccccc56)CC34)cc2)cc1 (stereo not shown) [IC-2-OPMB]
- inhibitory effect on cancer stem cells compared with IC-2 [1]: more potent inhibitory effect on cancer stem cells than IC-2

Structure (SMILES): O=C1C(Cc2ccccc2)N2C(=O)CCN(C(=O)NCc3ccccc3)C2CN1Cc1cccc2ccccc12 (stereo not shown) [IC-2]
- Wnt/β-catenin signal in a mesenchymal stem cell and differentiation into hepatocytes (Wnt/β-catenin signal): inhibit a Wnt/β-catenin signal in a mesenchymal stem cell, thereby inducing differentiation of the mesenchymal stem cell into hepatocytes
- percentage of CD44high cells (CD44high DLD-1 cells): significantly reduced the percentage of CD44^high cells
- growth inhibitory effect on squamous cell carcinoma cells [2]: exhibited a growth inhibitory effect
- growth of HuH-7 cells (HuH-7 cells; day 4): inhibited the growth of HuH-7 cells
- IC50 (HuH-7 cells; day 4, 0-50 μM, control 1% DMSO): 25.9 µM

Reference: US10597398B2, “Suppression and regeneration promoting effect of low molecular weight compound on cancer and fibrosis” (NATIONAL UNIVERSITY CORPORATION TOTTORI UNIVERSITY, priority 2015, dated 2020)
